# “Also recorded” adds a separate entry of the source. Read-outs that look alike come from different tables or passages of the source.
# How the values were obtained:
# [1] = Job plot; type: physicochemical; conditions: calabadion 2•ketamine, total 1 mM, pD 7.4; establishes 1:1 complex
# [2] = Job plot; type: physicochemical; conditions: calabadion 2•etomidate; establishes 1:1 complex
# [3] = system: Sprague-Dawley rats; assay: Burst suppression ratio and blood pressure during continuous etomidate infusion; type: in vivo, rat; conditions: continuous etomidate i.v.; escalating calabadion 2 infusion; returned from 83%; n=10
# [4] = system: Sprague-Dawley rats; assay: Total EEG power and blood pressure during continuous ketamine infusion; type: in vivo, rat; conditions: highest calabadion 2 dose, baseline 96 mmHg, n=10
# [5] = system: Sprague-Dawley rats; assay: Time to recovery from loss of righting reflex; type: in vivo, rat
# [6] = system: rats; assay: Balance beam test of functional mobility after anesthesia; type: in vivo, rat; conditions: n=7
# [7] = system: human white blood cells (THP-1); assay: MTS cell viability assay; type: cell-based; conditions: calabadion 2 up to 1 mM
# [8] = system: liver cells (HepG2); assay: MTS cell viability assay; type: cell-based, human; conditions: calabadion 2 up to 1 mM
# [9] = system: kidney cells (HEK293); assay: MTS cell viability assay; type: cell-based, human; conditions: calabadion 2 up to 1 mM
# [10] = system: THP-1, HepG2 and HEK293 cells; assay: Adenylate kinase release cell necrosis; type: cell-based, human; conditions: calabadion 2 up to 1 mM
# [11] = system: Swiss Webster mice; assay: Dose escalation; type: in vivo, mouse
# [12] = system: Sprague-Dawley rats; assay: Maximal tolerated dose escalation study with histopathology in rats; type: in vivo, rat
# [13] = target: hERG channel (Homo sapiens, UniProt Q12809); conditions: read-out: IC50, hERG channel; CHO-hERG, patch clamp, up to 25 μM
# [14] = system: S.typhimurium TA 1535; conditions: for ratio of number of colonies after treatment relative to untreated bacteria: <1.6 not mutagenic
# [15] = system: S.typhimurium TA 100; conditions: for ratio of number of colonies after treatment relative to untreated bacteria: <1.6 not mutagenic
# [16] = system: S.typhimurium TA 1537; assay: Bacteria reverse mutation assay; conditions: for ratio of number of colonies after treatment relative to untreated bacteria: <1.6 not mutagenic
# [17] = system: S.typhimurium TA 98; assay: Bacteria reverse mutation assay; conditions: for ratio of number of colonies after treatment relative to untreated bacteria: <1.6 not mutagenic
# [18] = system: S.typhimurium TA1535, TA 1537, TA 98 and TA 100; assay: Bacteria reverse mutation assay; conditions: Ames test, −/+S9
# hERG channel, sequence (Q12809 whole entry): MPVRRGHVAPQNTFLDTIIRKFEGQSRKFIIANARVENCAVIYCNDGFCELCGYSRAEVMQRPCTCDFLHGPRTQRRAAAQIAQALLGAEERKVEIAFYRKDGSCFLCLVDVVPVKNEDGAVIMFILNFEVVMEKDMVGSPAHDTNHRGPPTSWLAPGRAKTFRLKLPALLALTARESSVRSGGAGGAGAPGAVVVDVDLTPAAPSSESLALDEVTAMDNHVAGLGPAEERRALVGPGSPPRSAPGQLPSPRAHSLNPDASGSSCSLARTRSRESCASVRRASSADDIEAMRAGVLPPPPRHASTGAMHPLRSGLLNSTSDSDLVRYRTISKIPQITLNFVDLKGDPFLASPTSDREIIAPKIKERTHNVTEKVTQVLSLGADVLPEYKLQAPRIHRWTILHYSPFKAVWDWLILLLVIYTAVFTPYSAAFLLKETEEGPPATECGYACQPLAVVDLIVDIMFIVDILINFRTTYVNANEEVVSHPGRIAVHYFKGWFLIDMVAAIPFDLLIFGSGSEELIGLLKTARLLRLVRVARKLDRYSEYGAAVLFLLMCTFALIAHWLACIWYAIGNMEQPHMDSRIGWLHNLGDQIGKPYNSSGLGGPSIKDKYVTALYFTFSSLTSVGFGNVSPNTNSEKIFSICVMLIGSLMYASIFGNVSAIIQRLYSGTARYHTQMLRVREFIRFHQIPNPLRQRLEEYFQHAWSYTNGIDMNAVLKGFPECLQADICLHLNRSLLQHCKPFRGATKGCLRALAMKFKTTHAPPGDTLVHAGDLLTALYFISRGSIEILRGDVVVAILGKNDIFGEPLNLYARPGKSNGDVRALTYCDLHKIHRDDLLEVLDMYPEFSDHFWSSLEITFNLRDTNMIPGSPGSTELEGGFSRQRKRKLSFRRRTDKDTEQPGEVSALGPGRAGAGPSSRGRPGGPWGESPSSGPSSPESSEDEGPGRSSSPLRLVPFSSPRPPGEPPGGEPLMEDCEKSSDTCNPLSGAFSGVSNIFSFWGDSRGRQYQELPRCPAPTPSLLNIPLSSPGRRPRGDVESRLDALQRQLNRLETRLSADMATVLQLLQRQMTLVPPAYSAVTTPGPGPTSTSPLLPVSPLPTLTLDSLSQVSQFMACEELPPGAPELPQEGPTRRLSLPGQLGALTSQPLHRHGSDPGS
structure (smiles),measurement,setting,value
C[C@]12N3Cc4c(c(OCCCS(=O)(=O)[O-])c5ccccc5c4OCCCS(=O)(=O)[O-])CN1C(=O)N1CN4C(=O)N5CN6C(=O)N7CN8C(=O)N9Cc%10c(c(OCCCS(=O)(=O)[O-])c%11ccccc%11c%10OCCCS(=O)(=O)[O-])CN%10C(=O)N(CN%11C(=O)N(CN%12C(=O)N(CN(C3=O)[C@]12C)[C@@H]4[C@H]%125)[C@@H]6[C@H]%117)[C@]8(C)[C@@]9%10C.[Na+].[Na+].[Na+].[Na+] [Calabadion 2],Job plot maximum (mole fraction),[1],0.5
same,Job plot maximum (mole fraction),[2],0.5
same,"mean arterial blood pressure (MAP), % of pre-etomidate baseline",[3],101%
same,MAP compared to pre-ketamine baseline,[4],~130%
same,decrease of time to recovery from LORR relative to saline,[5]; etomidate-anesthetized rats,~50%
same,decrease of time to recovery from LORR relative to saline,[5]; ketamine anesthetized rats,about 30%
same,ED50 (median dose for accelerated recovery from LORR with 50% probability),[5]; reversal of 4 mg/kg i.v. etomidate bolus,984 mg/kg
same,ED50 (median dose for accelerated recovery from LORR with 50% probability),"[5]; reversal of 30 mg/kg i.v. bolus of ketamine, 30 mg/kg",167 mg/kg
same,reduction of time slope of recovery of balance vs saline,[6]; after 4 mg/kg etomidate i.v.,4.9 min
same,reduction of time slope of recovery of balance vs saline,[6]; after 30 mg/kg ketamine i.v.,3.9 min
same,reduction of time slope of recovery of balance vs saline,"[6]; after 50 mg/kg ketamine i.m., calabadion 2 i.p.",15.7 min
same,cell viability,[7],did not observe a significant reduction
same,cell viability,[8],did not observe a significant reduction
same,cell viability,[9],only a slight dip
same,cell lysis,[10],no cell lysis
same,average weight change of mice,"[11]; all groups (29, 87, 145, 203 mg/kg i.p. daily for 14 days), after 28 days",≥ 95%
same,tolerance in maximum tolerated dose study,"[11]; mice, i.p. daily for 14 days, up to 203 mg/kg",good tolerance
same,tolerability at effective doses,[12],well tolerated
same,"pathology finding, kidney","[12]; 5 of 6 animals that received the 2 highest doses, not at 1.6 g/kg",• A mild vacuolation of the epithelium in the P1 and P2 segments of the proximal convoluted tubule.
same,"pathology finding, liver","[12]; all animals that received 3.1–5.1 g/kg, 1 animal that received 1.6 g/kg",• Mild to moderate vacuolation that is consistent with mild fat accumulation.
same,"pathology finding, lung",[12]; animals receiving 3.1–5.1 g/kg,"Mild cellular necrosis, some apparent fluid in alveolar spaces and enlarged, foamy pulmonary alveolar macrophages; also recorded: Occasional distension of pulmonary alveolar capillaries with red blood cells and in a few animals evidence of possible pulmonary emboli; also recorded: Macrophages, especially in connective tissue or adipose tissue that were distended with a bluish, hematoxylin-positive material that appeared to be localized in the lysosomes"
same,"pathology finding, heart","[12]; i.v. up to 5.1 g/kg, all doses",• Within normal limits
same,"pathology finding, spleen","[12]; i.v. up to 5.1 g/kg, all doses",• Within normal limits
same,median lethal dose (LD50),"[12]; i.v., escalating doses on consecutive days, n=10",2700 mg/kg
same,IC50,[13],> 25 µM
same,number of colonies growing after treatment,"[14]; TA 1535, +S9, 0.012 mg per plate",10 ± 2
same,number of colonies growing after treatment,"[14]; TA 1535, +S9, 0.037 mg per plate",6 ± 2
same,number of colonies growing after treatment,"[14]; TA 1535, +S9, 0.11 mg per plate",7 ± 1
same,number of colonies growing after treatment,"[14]; TA 1535, +S9, 0.33 mg per plate",10 ± 5
same,number of colonies growing after treatment,"[14]; TA 1535, +S9, 1 mg per plate",7 ± 3
same,ratio of number of colonies after treatment relative to untreated bacteria,"[14]; TA 1535, +S9",0.87
same,number of colonies growing after treatment,"[14]; TA 1535, −S9, 0.012 mg per plate",6 ± 1
same,number of colonies growing after treatment,"[14]; TA 1535, −S9, 0.037 mg per plate",10 ± 5
same,number of colonies growing after treatment,"[14]; TA 1535, −S9, 0.11 mg per plate",8 ± 3
same,number of colonies growing after treatment,"[14]; TA 1535, −S9, 0.33 mg per plate",7 ± 4
same,number of colonies growing after treatment,"[14]; TA 1535, −S9, 1 mg per plate",8 ± 3
same,ratio of number of colonies after treatment relative to untreated bacteria,"[14]; TA 1535, −S9",0.72
same,number of colonies growing after treatment,"[15]; TA 100, +S9, 0.012 mg per plate",114 ± 2
same,number of colonies growing after treatment,"[15]; TA 100, +S9, 0.037 mg per plate",112 ± 8
same,number of colonies growing after treatment,"[15]; TA 100, +S9, 0.11 mg per plate",91 ± 6
same,number of colonies growing after treatment,"[15]; TA 100, +S9, 0.33 mg per plate",101 ± 7
same,number of colonies growing after treatment,"[15]; TA 100, +S9, 1 mg per plate",97 ± 4
same,ratio of number of colonies after treatment relative to untreated bacteria,"[15]; TA 100, +S9",0.88
same,number of colonies growing after treatment,"[15]; TA 100, −S9, 0.012 mg per plate",92 ± 11
same,number of colonies growing after treatment,"[15]; TA 100, −S9, 0.037 mg per plate",100 ± 6
same,number of colonies growing after treatment,"[15]; TA 100, −S9, 0.11 mg per plate",94 ± 4
same,number of colonies growing after treatment,"[15]; TA 100, −S9, 0.33 mg per plate",105 ± 9
same,number of colonies growing after treatment,"[15]; TA 100, −S9, 1 mg per plate",106 ± 6
same,ratio of number of colonies after treatment relative to untreated bacteria,"[15]; TA 100, −S9",1.06
same,number of colonies growing after treatment,"[16]; TA 1537, +S9, 0.012 mg per plate",2 ± 1
same,number of colonies growing after treatment,"[16]; TA 1537, +S9, 0.037 mg per plate",4 ± 1
same,number of colonies growing after treatment,"[16]; TA 1537, +S9, 0.11 mg per plate",6 ± 1
same,number of colonies growing after treatment,"[16]; TA 1537, +S9, 0.33 mg per plate",6 ± 1
same,number of colonies growing after treatment,"[16]; TA 1537, +S9, 1 mg per plate",5 ± 2
same,ratio of number of colonies after treatment relative to untreated bacteria,"[16]; TA 1537, +S9",0.71
same,number of colonies growing after treatment,"[16]; TA 1537, −S9, 0.012 mg per plate",7 ± 2
same,number of colonies growing after treatment,"[16]; TA 1537, −S9, 0.037 mg per plate",8 ± 2
same,number of colonies growing after treatment,"[16]; TA 1537, −S9, 0.11 mg per plate",7 ± 2
same,number of colonies growing after treatment,"[16]; TA 1537, −S9, 0.33 mg per plate",8 ± 1
same,number of colonies growing after treatment,"[16]; TA 1537, −S9, 1 mg per plate",3 ± 2
same,ratio of number of colonies after treatment relative to untreated bacteria,"[16]; TA 1537, −S9",0.3
same,number of colonies growing after treatment,"[17]; TA 98, +S9, 0.012 mg per plate",24 ± 4
same,number of colonies growing after treatment,"[17]; TA 98, +S9, 0.037 mg per plate",27 ± 3
same,number of colonies growing after treatment,"[17]; TA 98, +S9, 0.11 mg per plate",23 ± 5
same,number of colonies growing after treatment,"[17]; TA 98, +S9, 0.33 mg per plate",24 ± 7
same,number of colonies growing after treatment,"[17]; TA 98, +S9, 1 mg per plate",29 ± 6
same,ratio of number of colonies after treatment relative to untreated bacteria,"[17]; TA 98, +S9",1.07
same,number of colonies growing after treatment,"[17]; TA 98, −S9, 0.012 mg per plate",24 ± 4
same,number of colonies growing after treatment,"[17]; TA 98, −S9, 0.037 mg per plate",18 ± 8
same,number of colonies growing after treatment,"[17]; TA 98, −S9, 0.11 mg per plate",30 ± 10
same,number of colonies growing after treatment,"[17]; TA 98, −S9, 0.33 mg per plate",21 ± 5
same,number of colonies growing after treatment,"[17]; TA 98, −S9, 1 mg per plate",20 ± 5
same,ratio of number of colonies after treatment relative to untreated bacteria,"[17]; TA 98, −S9",1.05
same,mutagenic potential,[18],no mutagenic potential
